Laboratory results reported in article PMC10060577, “Synthesis and physicochemical characterization of acyl myricetins as potential anti-neuroexocytotic agents” (Scientific Reports, 2023).
Read-outs that look alike come from different tables or passages of the source.

How the values were obtained:
[1] = system: hen egg chorioallantoic membrane; assay: HET-CAM test (hen egg chorioallantoic membrane irritancy); type: in vivo, chicken; conditions: 2 mL of 1 mg·mL^−1 solution, images 1 min after addition; for HET-CAM Score: graded from 0 (no irritation) to 3 (strong irritation)
Description: The HET-CAM is used for detecting ophthalmic irritancy in vivo[35]. For the HET-CAM, fertilized eggs were obtained from a local market in Korea and incubated for 10 days (37.5 °C and 45% humidity), by maintaining autorotation at 90°·h^−1 to ensure proper development and viability of the embryos. After incubation, the upper shell was cut in a circular shape, without damaging the inner membrane. Immediately after cutting, the inner membrane was carefully removed with forceps, to avoid injury to the blood vessels, and 2 mL of acyl myricetin solutions were placed on the CAM. Prior to the treatment, the solutions were prepared by mixing 1.9 mL of PBS and 100 μL of DMSO dissolving acyl myricetins, to prevent sedimentation of the crystalline solute. A mixture of PBS (1.9 mL) and DMSO (100 μL), and 1 M NaOH aqueous solution were used as negative and positive controls, respectively. Next, by turning an LED flashlight at the bottom of eggshell, CAM images were obtained 1 min after samples addition.
Based on the CAM images, the severity of any hemorrhage, blood-coagulation, and hyperemia was graded from 0 (no irritation) to 3 (strong irritation) according to a previously developed scoring method. We analyzed the CAM images using ImageJ (http://rsb.info.nih.gov/ij/) to prevent arbitrary judgments with respect to the previous scoring method; then we selected blood vessels in the CAM images, and measured hemorrhage, blood-coagulation, and hyperemia as follows. First, the CAM images were loaded individually into ImageJ, cropped to a fixed size to exclude the shell, and converted to grayscale. The CAM images, grayscaled with red stack, were adjusted using the MidGrey method, and the area fraction (%Area) values of black pixels in the adjusted CAM images were measured and recorded.

[2] = system: differentiated PC-12 cells; assay: Acetylcholine release assay; type: cell-based; conditions: 12 h incubation, read-out: EC50 (inhibition of acetylcholine release)
Description: PC-12 cells, obtained from Korean Cell Line Bank (KCLB, Seoul, Korea), were cultured in media containing 84% (v/v) RPMI 1640 medium, 10% (v/v) heat-inactivated horse serum, 5% (v/v) heat-inactivated FBS, and 1% (v/v) antibiotic-antimycotic (100×) solution, under humidified conditions (37 °C, 5% CO2). The culture medium was refreshed every other day. Prior to further experiments, the viability of the cells in passages 1-5 was assessed using the trypan blue exclusion test. Harvested PC-12 cells were seeded into 24-well plates coated with poly-D-[…] × 10^5 cells per well) and grown in the culture media for one day (37 °C, 5% CO2). […] GIBCO/Invitrogen) and incubated for 5 days. Then, the media were replaced with the low serum medium containing the acyl […] incubated for 12 h. Next, the acetylcholine released from the cells into the medium was quantified using an Acetylcholine Assay Kit (Fluorometric; Cell Biolabs, Inc., CA, USA) and the Synergy H1 (λex/λem, 530 nm/600 nm). Subsequently, using the Kit, the amount of released acetylcholine was determined by subtracting the basal level signal from the signal for sample-treated cells.

[3] = Determination of 1-octanol/water partition coefficients (logP); type: physicochemical; conditions: 1-octanol/water (DDW); 1-octanol/DDW, 25 °C
Description: Values for logP were determined to quantify the lipophilicity or hydrophilicity of the separated acyl myricetins, using the previously reported method with slight modifications. After the addition of 1-octanol (500 μL) into 2 mL micro-tubes containing 1 mg of the separated acyl myricetins, the micro-tubes were vortexed for 1 min, followed by sonication (bath-type) for 5 min, and then 500 μL of DDW was added to the tubes. Next, the mixed solutions in the tubes were vortexed again for 5 min and phase-separated by centrifugation (3000 relative centrifugal force for 10 min at 25 °C). The 40 μL of upper layer (1-octanol) and 100 μL of lower layer (DDW) were collected and diluted with 1.96 mL of 1-octanol and 100 μL of DMSO, respectively. The solutes dissolved in the upper and lower layers were quantified based on the standard curves obtained from the UV/Vis-light absorbance spectra (250‒600 nm) using a microplate reader (Synergy H1; BioTek Instruments Inc., VT, USA; measuring interval of 3 nm, at 25 °C). Finally, the logP values were calculated as log(coctanol/cDDW), where coctanol and cDDW are the concentrations of the solutes in the upper and lower layers, respectively.

[4] = Neutral red uptake (NRU) cytotoxicity assay; type: cell-based; conditions: rat, PC-12 cells, 12 h incubation
Description: (§1) PC-12 cells, obtained from Korean Cell Line Bank (KCLB, Seoul, Korea), were cultured in media containing 84% (v/v) RPMI 1640 medium, 10% (v/v) heat-inactivated horse serum, 5% (v/v) heat-inactivated FBS, and 1% (v/v) antibiotic-antimycotic (100×) solution, under humidified conditions (37 °C, 5% CO2). The culture medium was refreshed every other day. Prior to further experiments, the viability of the cells in passages 1-5 was assessed using the trypan blue exclusion test. Harvested PC-12 cells (~ 80% confluency per well) were seeded into 96-well plates coated with type I-collagen and grown in the culture media for one day (37 °C, 5% CO2). Cells were treated with media containing the acyl […] incubated for 12 h. The media were aspirated, and cells were then incubated for 2 h with 0.33% (w/v) neutral red dissolved in the media. After the incubation, the neutral red media were carefully withdrawn, and cells were rinsed twice with PBS at 37 °C and dried for 1 h. Next, neutral red contained in the dried cells was extracted and solubilized with a solution of 50% (v/v) ethanol, 49% (v/v) DDW, and 1% (v/v) acetic acid, by incubating for 10 min. Absorbance of the neutral red-containing solution at 540 nm was recoded using the Synergy H1. Cell viability was determined based on the absorbance of treated cells compared to that of untreated cells (without acyl […]).

[5] = system: PC-12 cells; assay: Neutral red uptake (NRU) cytotoxicity assay; type: cell-based; conditions: 12 h incubation
Description: as §1

[6] = Stability assessment against oxidation in aqueous solution by UV/Vis absorbance spectra; type: physicochemical; conditions: PBS pH 7, 37 °C; for decay rate constant k: absorbance at 376 nm, exponential decay-plateau fitting
Description: To assess their stability in an aqueous environment at pH 7 and 37 °C, UV/Vis-light absorbance spectra of the separated acyl […] obtained using the Synergy H1 (BioTek Instruments Inc.; measuring interval of 3 nm, 25 °C), at a wavelength-range of 250-600 nm[34]. One hundred microliters of the separated esters (20 μg·mL^-1), dissolved in DMSO, were mixed in a micro-tube (2 mL) with 1.9 mL of phosphate buffered saline (PBS), pre-adjusted to pH 7 with 1 M HCl aqueous solution. After covering with a lid, the mixture was immediately incubated for 18 h in a heating shaking drybath (S08040; Thermo Scientific) at 37 °C, shaken at 700 rpm. […] The amount of non-oxidized acyl myricetin was determined, based on the absorbance ( abs ) at a wavelength of 376 nm at incubation time ( t ). An exponential decay-plateau fitting method was employed to determine decay rate constant values ( k , s^-1) for the acyl […] follows: ln(abs/abs0)=-[…]) where abs0 is the absorbance at the initiation of incubation and tp is the time in which the left side ( -kt ) reaches the plateau constant ( p ). The non-oxidized proportion of the esters, after all the incubation, was described as e^p . Monitoring the shift of specific peaks in the spectra for the acyl […] could be important for application in food and cosmetics because this can indirectly indicate color changes in the product, which would be unwelcomed to most of the customers. Therefore, the center of gravity in the spectra of the M esters was determined as follows, in order to monitor the shift of specific peaks Centerofgravitycg=∑(absiλi)/∑(absi) where absi is the absorbance at a specific wavelength ( λi , 300-400 nm). Based on the cg estimated during the incubations, the cg shifting rate ( k1 ) was determined using the two segment linear fitting curves as follows: […]1=[…] intercepts of linear curves for the left and right sides, respectively, t1 is the time that the left side ( k1t+cg1 ) takes to become the right side ( k2t+cg2 ), and k2 is an inclination of curve toward the right side.

| Compound | HET-CAM Description [1] | HET-CAM Score [1] | EC50 ([2]; Rattus norvegicus) | logP at 5 min [3] | CC50 at 12 h [4] | CC50 [5] | decay rate constant k [6] | EC50 [2] | k value fold lower than that of myricetin [6] | times by which the myricetin cg shift is faster than that of the compound [6] |
| --- | --- | --- | --- | --- | --- | --- | --- | --- | --- | --- |
| [Na+].[OH-] [1 M NaOH, NaOH, reference compound] | Severe irritant | 3 |  |  |  |  |  |  |  |  |
| O=c1c(O)c(-c2cc(O)c(O)c(O)c2)oc2cc(O)cc(O)c12 [M, myricetin] | Non irritant | 0 | 5.36 ± 0.2 µM | 1.34 ± 0.1 | 65.4 µM | 66.4 ± 10.9 µM | 0.00037 s⁻¹ |  |  |  |
| dipropionyl-myricetin [MP2] | Non irritant | 0 |  |  |  |  | 0.00013 s⁻¹ | 3.58 ± 0.75 µM | 2.7 fold | 5.1 fold |
| monooctanoyl-myricetin [MO1] | Non irritant | 0 |  |  |  |  | 0.00012 s⁻¹ | 2.51 ± 0.89 µM | ~ 3.1 fold | ~ 2.3 fold |
| monopropionyl-myricetin [MP1] | Non irritant | 0 |  |  |  |  | 0.0002 s⁻¹ | 3.84 ± 1.08 µM | ~ 1.9 fold | ~ 2.4 fold |
